Results from patent publication US11584756B2, “Heterocyclic compounds as BET inhibitors” (NUVATION BIO INC., priority 2019, dated 2023).
Where two headings read alike, the source gives them in different places.

Experiments:
BRD4-1 = BRD4-1 (Homo sapiens (Human), UniProt O60885); test: Bromodomain and Extraterminal Domain (BET) binding assay, BRD4-1; settings: histone H4 peptide (1-21) K5/8/12/16Ac-biotin ligand; 20 nM protein, 20 nM ligand
Protocol: (§1) The bromodomain binding assays were performed by Reaction Biology Corp., Malvern, Pa., USA (www.reactionbiology.com). The BET binding assays were conducted in 384 well microplates in assay buffer (50 mM HEPES-HCl, pH 7.5, 100 mM NaCl, 1 mg/ml BSA, 0.05% CHAPS, and 0.5% DMSO) with compounds added as DMSO stocks at a single concentration or with 10-point dose response titrations. BET protein or assay buffer were delivered to the appropriate wells of the microplate. Test compound was then delivered by acoustic technology via a Labcyte Echo550 liquid handler. The microplate was centrifuged for 5 min and pre-incubated for 30 min at RT with gentle shaking. The ligand (histone H4 peptide (1-21) K5/8/12/16Ac-biotin) was delivered and the microplate was again centrifuged for 5 min and allowed to incubate for 30 min at RT with gentle shaking. Donor beads were then added in the absence of light and the microplate was centrifuged and gently shaken. After 5 min, acceptor beads were added in the absence of light and the microplate was centrifuged and gently shaken in the dark for 60 min. The microplate was read using a Perkin Elmer EnSpire Alpha plate reader (λ Ex/λ Em=680/520-620 nm). Percent inhibition was calculated relative to positive and negative controls on a per plate basis. For titration experiments, IC50 values were determined by fitting the percent inhibition versus compound concentration.

[1] = system: IEC-6 rat intestinal epithelial cell line; test: Cell viability assay in IEC-6 cells (resazurin), potential toxicity to non-cancerous cells; format: cell-based
Protocol: The effects of test compounds were also studied in the IEC-6 rat intestinal epithelial cell line to assess potential toxicity to non-cancerous cells. The cells were harvested during the logarithmic growth period and counted. In Protocol A, cells were seeded at a count of 3000 cells per well/100 μl in a 96-well plate. After seeding, cells were incubated at 37° C. 5% CO2 for 24 hr. Cells were treated with test compounds at 8 concentrations within a desired concentration range (e.g. 5 nM-10 μM) for generation of dose response curves by preparing serial dilutions of the test compound in DMSO which were further diluted with culture medium and then added to each well. The plate was further incubated for another 96 hrs in humidified incubator at 37° C. and 5% CO2. The assay was terminated by addition of resazurin (#R7017, Sigma). The plate was incubated for 4 hr at 37° C. 5% CO2 and fluorescence was measured using excitation and emission wavelengths of 535 and 590 nm, respectively. Cell viability data were plotted using GraphPad Prism (GraphPad Software, Inc., San Diego, Calif.). In addition, a nonlinear regression model with a sigmoidal dose response and variable slope within GraphPad Prism was used to calculate the IC50 value of individual test compounds. Protocol B was the same as Protocol A except that cells were seeded at a count of 4000 cells per well/100 μl in a 96-well plate, and the incubation with test compound was for 48 hrs instead of 96 hrs.

[2] = system: MV-4-11 human acute myeloid leukemia cell line; test: Cell viability assay in MV-4-11 cells (Cell Titer-Glo); format: cell-based; settings: MV4-11, 72 hrs incubation
Protocol: The effects of test compounds were studied in a cell viability assay in the MV-4-11 human acute myeloid leukemia cell line. The cells were harvested during the logarithmic growth period and counted. Cells were seeded at a count of 15000 cells per well/100 μl. After seeding, cells were incubated at 37° C. 5% CO2 for 1 hr. Cells were treated with test compounds at 8 concentrations within a desired concentration range (e.g. 5 nM-10 μM) for generation of dose response curves by preparing serial dilutions of the test compound in DMSO which were further diluted with culture medium and then added to each well. The plate was further incubated for another 72 hrs in a humidified incubator at 37° C. and 5% CO2. The assay was terminated by addition of Cell Titer-Glo reagent (Promega, Madison, Wis.) at ¼ the volume of total medium per well. Contents were mixed, the plate was incubated for 10 min at room temperature and luminescence was measured. Cell viability data were plotted using GraphPad Prism (GraphPad Software, Inc., San Diego, Calif.). In addition, a nonlinear regression model with a sigmoidal dose response and variable slope within GraphPad Prism was used to calculate the IC50 value of individual test compounds.

BRD4-2 = BRD4-2 (Homo sapiens (Human), UniProt O60885); test: Bromodomain and Extraterminal Domain (BET) binding assay, BRD4-2; settings: histone H4 peptide (1-21) K5/8/12/16Ac-biotin ligand; 130 nM protein, 70 nM ligand
Protocol: as §1

[3] = Protocol A: 3000 cells per well, 96 hrs incubation with test compound, read-out: Protocol A IC50 (μM), cell viability in IEC-6 cells
[4] = Protocol B: 4000 cells per well, 48 hrs incubation with test compound, read-out: Protocol B IC50 (μM), cell viability in IEC-6 cells

Structure (SMILES)	IC50 (BRD4-1) [µM]	IC50 [2] [µM]	IC50 (BRD4-2) [µM]	IC50 [1, 3] [µM]	IC50 [1, 4] [µM]
CCNC(=O)c1cc2c(-c3cc(C(C)(C)O)ccc3Oc3c(C)cc(F)cc3C)cn(C)c(=O)c2s1 [Compound 1, N-ethyl-4-(2-(4-fluoro-2,6-dimethylphenoxy)-5-(2-hydroxypropan-2-yl)phenyl)-6-methyl-7-oxo-6,7-dihydrothieno[2,3-c]pyridine-2-carboxamide]	10.1	0.131	0.002	0.266	4.91
CCNC(=O)c1cc2c(-c3cc(C(C)(C)O)ccc3Oc3ccc(F)cc3F)cn(C)c(=O)c2s1 [Compound 3, 4-(2-(2,4-difluorophenoxy)-5-(2-hydroxypropan-2-yl)phenyl)-N-ethyl-6-methyl-7-oxo-6,7-dihydrothieno[2,3-c]pyridine-2-carboxamide]	2.05	0.074	< 0.002	0.089	
CCS(=O)(=O)Nc1ccc(Oc2c(C)cccc2C)c(-c2cn(C)c(=O)c3sc(-c4nnc(C)o4)cc23)c1 [Compound 4, N-(4-(2,6-dimethylphenoxy)-3-(6-methyl-2-(5-methyl-1,3,4-oxadiazol-2-yl)-7-oxo-6,7-dihydrothieno[2,3-c]pyridin-4-yl)phenyl)ethanesulfonamide]	0.197	0.115	0.006	0.048	0.283
CCS(=O)(=O)Nc1ccc(Oc2c(C)cc(F)cc2C)c(-c2cn(C)c(=O)c3sc(-c4nnc(C)o4)cc23)c1 [Compound 10, N-(4-(4-fluoro-2,6-dimethylphenoxy)-3-(6-methyl-2-(5-methyl-1,3,4-oxadiazol-2-yl)-7-oxo-6,7-dihydrothieno[2,3-c]pyridin-4-yl)phenyl)ethanesulfonamide]	0.111	0.126	0.0034		0.78
Cc1nnc(-c2cc3c(-c4cc(C(C)(C)O)ccc4Oc4c(C)cc(F)cc4C)cn(C)c(=O)c3s2)o1 [Compound 13, 4-(2-(4-fluoro-2,6-dimethylphenoxy)-5-(2-hydroxypropan-2-yl)phenyl)-6-methyl-2-(5-methyl-1,3,4-oxadiazol-2-yl)thieno[2,3-c]pyridin-7(6H)-one]	4.94	0.54	0.009		2.5
Cn1cc(-c2cc(C(C)(C)O)ccc2Oc2ccc(F)cc2F)c2cc(C(=O)N3CCCC(F)(F)C3)sc2c1=O [Compound 23, 4-(2-(2,4-difluorophenoxy)-5-(2-hydroxypropan-2-yl)phenyl)-2-(3,3-difluoropiperidine-1-carbonyl)-6-methylthieno[2,3-c]pyridin-7(6H)-one]	1.12	0.768	0.018		1.62
CCNC(=O)c1cc2c(=O)n(C)cc(-c3cc(C(C)(C)O)ccc3Oc3c(C)cc(F)cc3C)c2s1 [Compound 146, N-ethyl-7-(2-(4-fluoro-2,6-dimethylphenoxy)-5-(2-hydroxypropan-2-yl)phenyl)-5-methyl-4-oxo-4,5-dihydrothieno[3,2-c]pyridine-2-carboxamide]	2.92	0.084	0.002		0.729

Further compounds by falling IC50 [2], results first:

IC50 (BRD4-1) [µM]	IC50 [2] [µM]	IC50 (BRD4-2) [µM]	Structure (SMILES)	IC50 [1, 3] [µM]	IC50 [1, 4] [µM]
0.103	0.56	0.196	CCS(=O)(=O)Nc1ccc(Oc2ccc(F)cc2F)c(-c2cn(C)c(=O)c3sc(-c4nc5ccccc5o4)cc23)c1 [Compound 158, N-(3-(2-(benzo[d]oxazol-2-yl)-6-methyl-7-oxo-6,7-dihydrothieno[2,3-c]pyridin-4-yl)-4-(2,4-difluorophenoxy)phenyl)ethanesulfonamide]		
0.094	0.379	0.074	Cc1noc(-c2cc3c(-c4cc(C(C)(C)O)ccc4Oc4ccc(F)cc4F)cn(C)c(=O)c3s2)n1 [Compound 8, 4-(2-(2,4-difluorophenoxy)-5-(2-hydroxypropan-2-yl)phenyl)-6-methyl-2-(3-methyl-1,2,4-oxadiazol-5-yl)thieno[2,3-c]pyridin-7(6H)-one]	0.156	0.521
0.601	0.245	0.007	Cn1cc(-c2cc(C(C)(C)O)ccc2Oc2ccc(F)cc2F)c2cc(C(=O)NC3CC3)sc2c1=O [Compound 145, N-cyclopropyl-4-(2-(2,4-difluorophenoxy)-5-(2-hydroxypropan-2-yl)phenyl)-6-methyl-7-oxo-6,7-dihydrothieno[2,3-c]pyridine-2-carboxamide]		0.691
	0.111	0.001	CCNC(=O)c1cc2c(-c3cc(C(C)(C)O)ccc3Oc3ccc(Cl)cc3Cl)cn(C)c(=O)c2s1 [Compound 2, 4-(2-(2,4-dichlorophenoxy)-5-(2-hydroxypropan-2-yl)phenyl)-N-ethyl-6-methyl-7-oxo-6,7-dihydrothieno[2,3-c]pyridine-2-carboxamide]	0.061	
0.299	0.047	0.0018	CCNC(=O)c1cc2c(-c3cc(NS(=O)(=O)CC)ccc3Oc3c(C)cccc3C)cn(C)c(=O)c2s1 [Compound 147, 4-(2-(2,6-dimethylphenoxy)-5-(ethylsulfonamido)phenyl)-N-ethyl-6-methyl-7-oxo-6,7-dihydrothieno[2,3-c]pyridine-2-carboxamide]		1.77
